Test system: VSVΔ51-resistant CT26 colon carcinoma tumors
Set-up: species or system Balb/c mice
Details: mouse, in vivo, ip

## O=C1OC(c2ccccc2)C(Cl)=C1Cl (centres unmarked) [VSe1, 3,4-dichloro-5-phenyl-2,5-dihydrofuran-2-one]
  tumor growth, compound alone: neither VSe1 nor VSVΔ51 alone had a significant effect on tumor growth
  tumor progression, combination with VSVΔ51: significant delay in tumor progression

Reference: patent US8940291B2 (priority 2009, dated 2015)
